These results are taken from ChEMBL document CHEMBL1140955, “Synthesis and in vitro biological evaluation of valine-containing prodrugs derived from clinically used HIV-protease inhibitors” (Eur J Med Chem, 2008).

Some results are limits rather than exact numbers.

The test system of data set [1] is Human immunodeficiency virus 1. The experiment in a line: Antiviral activity against HIV1 LAI infected in human CEM-SS cells assessed as reverse transcriptase activity after 5 days by MTT assay. The note with it: Human immunodeficiency virus 1, LAI, 120 h. In kind it is functional, organism-based. (Tetrazolium assays rely on reduction of a dye to a coloured formazan, in cell work by metabolically active cells.)

Data set [2] is described as follows: Cytotoxicity against human MT4 cells after 4 days by MTT assay. In kind it is cell-based.
For data set [3], the system named is Human immunodeficiency virus 1. The experiment in a line: Antiviral activity against HIV1 3B infected in human MT4 cells assessed as reverse transcriptase activity after 5 days by MTT assay. As to conditions: Human immunodeficiency virus 1, 3B, MT4, 120 h.
A short description of data set [4]: Apparent permeability from apical to basolateral side of human Caco-2 cells at 175 uM in donor chamber after 3 hrs. The format is ADME, cell-based. The note with it: read-out: permeability. (In general: Caco-2 monolayers are a common model of the intestinal barrier.)
Data set [5] in a line: Cytotoxicity against human CEM-SS cells after 5 days by MTT assay. The format is cell-based.
A short description of data set [6]: Apparent permeability from basolateral to apical side of human Caco-2 cells at 175 uM in donor chamber after 3 hrs. The format is ADME, cell-based. The note with it: read-out: permeability.
The test system of data set [7] is Caco-2. The experiment in a line: Permeability from basolateral to apical side of human Caco-2 cells assessed as ratio of prodrug concentration in receiver to prodrug concentration in donor at 177 uM in donor chamber after 3 hrs. In kind it is ADME, cell-based. As to conditions: caco-2, 3 h.
Data set [8] concerns Caco-2. The experiment in a line: Permeability from apical to basolateral side of human Caco-2 cells assessed as ratio of prodrug concentration in receiver to prodrug concentration in donor at 330 uM in donor chamber after 3 hrs. The note with it: caco-2, 3 h. The format is ADME, cell-based.
Data set [9] in a line: Apparent permeability from apical to basolateral side of human Caco-2 cells at 26.5 uM in donor chamber after 3 hrs. In kind it is ADME, cell-based. As to conditions: read-out: permeability.
The subject of data set [10] is Caco-2. The experiment in a line: Permeability from basolateral to apical side of human Caco-2 cells assessed as ratio of prodrug concentration in receiver to prodrug concentration in donor at 330 uM in donor chamber after 3 hrs. In kind it is ADME, cell-based. The note with it: caco-2, 3 h.
Data set [11] in a line: Apparent permeability from basolateral to apical side of human Caco-2 cells at 26.5 uM in donor chamber after 3 hrs. The format is ADME, cell-based. The note with it: read-out: permeability.
The subject of data set [12] is Human immunodeficiency virus 1. The experiment in a line: Antiviral activity against HIV1 LAI infected in human CEM-SS cells assessed as ratio of IC50 for prodrug to IC50 for parent compound. In kind it is functional.
Data set [13] has as its system Caco-2. The experiment in a line: Permeability from apical to basolateral side of human Caco-2 cells assessed as ratio of prodrug concentration in receiver to prodrug concentration in donor at 177 uM in donor chamber after 3 hrs. The format is ADME, cell-based. The note with it: caco-2, 3 h.
The subject of data set [14] is Caco-2. The experiment in a line: Permeability from basolateral to apical side of human Caco-2 cells assessed as ratio of prodrug concentration in receiver to prodrug concentration in donor at 26.5 uM in donor chamber after 3 hrs. The note with it: caco-2, 3 h. The format is ADME, cell-based.
Data set [15] has as its system Human immunodeficiency virus 1. The experiment in a line: Antiviral activity against HIV1 3B infected in human MT4 cells assessed as ratio of IC50 for prodrug to IC50 for parent compound.
A short description of data set [16]: Chemical stability assessed as hydrolysis half life at pH 7.3. The format is physicochemical. The note with it: buffer.
The test system of data set [17] is Caco-2. The experiment in a line: Permeability from apical to basolateral side of human Caco-2 cells assessed as ratio of prodrug concentration in receiver to prodrug concentration in donor at 26.5 uM in donor chamber after 3 hrs. The format is ADME, cell-based. The note with it: caco-2, 3 h.
Data set [18] can be described thus: Apparent permeability from apical to basolateral side of human Caco-2 cells at 9.4 uM in donor chamber after 3 hrs. The format is ADME, cell-based. The note with it: read-out: permeability.
Data set [19] has as its system Caco-2. The experiment in a line: Permeability from apical to basolateral side of human Caco-2 cells assessed as ratio of prodrug concentration in receiver to prodrug concentration in donor at 9.4 uM in donor chamber after 3 hrs. In kind it is ADME, cell-based. The note with it: caco-2, 3 h.
Data set [20] is described as follows: Apparent permeability from basolateral to apical side of human Caco-2 cells at 9.4 uM in donor chamber after 3 hrs. In kind it is ADME, cell-based. The note with it: read-out: permeability.
The subject of data set [21] is Caco-2. The experiment in a line: Permeability from basolateral to apical side of human Caco-2 cells assessed as ratio of prodrug concentration in receiver to prodrug concentration in donor at 9.4 uM in donor chamber after 3 hrs. In kind it is ADME, cell-based. The note with it: caco-2, 3 h.
Data set [22] relates to Caco-2. The experiment in a line: Permeability from basolateral to apical side of human Caco-2 cells assessed as ratio of prodrug concentration in receiver to prodrug concentration in donor at 150 uM in donor chamber after 3 hrs. In kind it is ADME, cell-based. The note with it: caco-2, 3 h.
Data set [23] in a line: Apparent permeability from basolateral to apical side of human Caco-2 cells at 150 uM in donor chamber after 3 hrs. As to conditions: read-out: permeability. In kind it is ADME, cell-based.
A short description of data set [24]: Apparent permeability from apical to basolateral side of human Caco-2 cells at 177 uM in donor chamber after 3 hrs. In kind it is ADME, cell-based. The note with it: read-out: permeability.
Data set [25] can be described thus: Apparent permeability from basolateral to apical side of human Caco-2 cells at 177 uM in donor chamber after 3 hrs. In kind it is ADME, cell-based. As to conditions: read-out: permeability.
A short description of data set [26]: Apparent permeability from apical to basolateral side of human Caco-2 cells at 21 uM in donor chamber after 3 hrs. As to conditions: read-out: permeability. In kind it is ADME, cell-based.
For data set [27], the system named is Caco-2. The experiment in a line: Permeability from basolateral to apical side of human Caco-2 cells assessed as ratio of prodrug concentration in receiver to prodrug concentration in donor at 21 uM in donor chamber after 3 hrs. In kind it is ADME, cell-based. The note with it: caco-2, 3 h.
Data set [28] concerns Caco-2. The experiment in a line: Permeability from apical to basolateral side of human Caco-2 cells assessed as ratio of prodrug concentration in receiver to prodrug concentration in donor at 21 uM in donor chamber after 3 hrs. In kind it is ADME, cell-based. As to conditions: caco-2, 3 h.
A short description of data set [29]: Apparent permeability from basolateral to apical side of human Caco-2 cells at 21 uM in donor chamber after 3 hrs. As to conditions: read-out: permeability. In kind it is ADME, cell-based.

As a reminder, the IC50 is the point on the concentration scale where inhibition reaches its midpoint. In general, CC50 refers to the concentration that lowers cell viability or growth by half. Consider `CC(C)(C)NC(=O)[C@@H]1CN(Cc2cccnc2)CCN1C[C@@H](O)C[C@@H](Cc1ccccc1)C(=O)N[C@H]1c2ccccc2C[C@H]1O.O=S(=O)(O)O` [INDINAVIR SULFATE], for which the IC50 in data set [1] is at most 10 nM; in data set [3], 22 nM. For the same compound, in [2], the 50% cytotoxic concentration (CC50) at 96 h is above 100000 nM. In addition, the Papp A→B at 3 h, 175 µM in data set [4] was 1.03 ×10⁻⁶ cm/s. For the same compound, the CC50 at 120 h in [5] is above 100000 nM. Moreover, in [6], the Papp B→A at 3 h, 175 µM was found to be 15.5 ×10⁻⁶ cm/s.

Broadly, the half-life is how long it takes for the measured level to halve. On to `CC(C)[C@@H](N)C(=O)NCCCCCC(=O)O[C@H](CN1C[C@H]2CCCC[C@H]2C[C@H]1C(=O)NC(C)(C)C)[C@H](Cc1ccccc1)NC(=O)[C@H](CC(N)=O)NC(=O)c1ccc2ccccc2n1.O=C(O)C(F)(F)F.O=C(O)C(F)(F)F.O=C(O)C(F)(F)F`, for which the Activity in the data set on Caco-2 [7] is on record as 14.6%; with Caco-2 [8] it was 15.6%; in the data set on Caco-2 [10], 18.1%; in the data set with Caco-2 [13], 14%; in the data set with Caco-2 [14] it was 4.8%; in the data set on Caco-2 [17] it was 2.2%. Moreover, the IC50 in data set [1] was 175 nM; in [3], 340 nM. In [2], it took 5300 nM to reach half-maximal cytotoxicity (CC50 at 96 h). Moreover, the Papp A→B at 3 h, 26.5 µM in data set [9] was determined as 0.58 ×10⁻⁶ cm/s. Further, the Papp B→A at 3 h, 26.5 µM in data set [11] was 1.87 ×10⁻⁶ cm/s. Moreover, the “Ratio IC50” value in data set [12] and in data set [15] was 19 in each case. In data set [5], this compound registered a CC50 at 120 h of 9000 nM. Besides, the half-life in [16] is 60 h.

In the case of `CC(C)(C)NC(=O)[C@@H]1C[C@@H]2CCCC[C@@H]2CN1C[C@@H](O)[C@H](Cc1ccccc1)NC(=O)[C@H](CC(N)=O)NC(=O)c1ccc2ccccc2n1`, the IC50 in data set [1] amounted to 9 nM; in [3], 18 nM. Further, in data set [18], the Papp A→B at 3 h, 9.4 µM came to 3.98 ×10⁻⁶ cm/s. The cytotoxic concentration (CC50) at 96 h in data set [2] was above 10000 nM. The Activity amounted to 2.6% with Caco-2 [19] and 10.3% in the data set with Caco-2 [21]. The CC50 at 120 h in [5] was above 10000 nM. The Papp B→A at 3 h, 9.4 µM in data set [20] was found to be 1.1 ×10⁻⁶ cm/s.

`CC(C)[C@H](N)C(=O)NCCCCCC(=O)O[C@@H](C[C@@H](Cc1ccccc1)C(=O)N[C@H]1c2ccccc2C[C@H]1OC(=O)CCCCCNC(=O)[C@@H](N)C(C)C)CN1CCN(Cc2cccnc2)C[C@H]1C(=O)NC(C)(C)C.O=C(O)C(F)(F)F.O=C(O)C(F)(F)F`: the IC50 in [1] was determined as 640 nM; in data set [3] it was 2950 nM. Further, it took 45000 nM to reach half-maximal cytotoxicity in data set [2] (CC50 at 96 h). In addition, in the data set with Caco-2 [22], the Activity came out at 2.1%. In addition, the Papp B→A at 3 h, 150 µM in [23] stood at 6.26 ×10⁻⁶ cm/s. Further, the “Ratio IC50” value is on record as “>=64” in [12] and 134 in data set [15]. Further, in data set [5], the 50% cytotoxic concentration (CC50) at 120 h is above 50000 nM. Moreover, the half-life in data set [16] was 80 h.

Consider `CC(C)[C@H](N)C(=O)O[C@@H](C[C@@H](Cc1ccccc1)C(=O)N[C@H]1c2ccccc2C[C@H]1O)CN1CCN(Cc2cccnc2)C[C@H]1C(=O)NC(C)(C)C.O=C(O)C(F)(F)F`, for which the results for the Activity with Caco-2 [7] and in the data set with Caco-2 [13] were 14.6% and 14%, respectively. Further, the 50% inhibitory concentration (IC50) in data set [1] is 90 nM; in data set [3] it was 27 nM. The compound further came in with a CC50 at 96 h in data set [2] of 100000 nM. Moreover, the Papp A→B at 3 h, 177 µM in [24] came to 5.13 ×10⁻⁶ cm/s. The “Ratio IC50” value in [12] is “>=9”; in [15] it was 1. For the same compound, the CC50 at 120 h in data set [5] is above 100000 nM. Moreover, the Papp B→A at 3 h, 177 µM in data set [25] turned out to be 7.08 ×10⁻⁶ cm/s. Moreover, the half-life in data set [16] was 68 h.

As to `CC(C)[C@H](N)C(=O)O[C@H](CN1C[C@H]2CCCC[C@H]2C[C@H]1C(=O)NC(C)(C)C)[C@H](Cc1ccccc1)NC(=O)[C@H](CC(N)=O)NC(=O)c1ccc2ccccc2n1.O=C(O)C(F)(F)F`, the Papp A→B at 3 h, 21 µM in data set [26] is 2.32 ×10⁻⁶ cm/s. The concentration for half-maximal inhibition (IC50) in [1] was found to be 140 nM; in data set [3], 290 nM. The compound further came in with a half-maximal cytotoxic concentration (CC50) at 96 h in [2] above 10000 nM. The Activity worked out at 9.6% in the data set on Caco-2 [27] and 6.1% in the data set on Caco-2 [28]. Also, in [29], the Papp B→A at 3 h, 21 µM is 3.43 ×10⁻⁶ cm/s. The “Ratio IC50” value in data set [12] and in data set [15] was 16 throughout. This compound returned a cytotoxic concentration (CC50) at 120 h in data set [5] above 10000 nM. The half-life in data set [16] is 40 h.
